Blank lines part the entries; values can stand above or below the compound they belong to. Calls of active or inactive are those of the source. The rule behind the calls is not given here.
Columns and labels:
[1] = molecular target: T1, Amine oxidase [flavin-containing] A (Homo sapiens, UniProt P21397); assay: Inhibition of human recombinant MAOA using kynuramine as substrate preincubated for 10 mins followed by substrate addition at 10 secs intervals measured after 20 mins by fluorescence assay
T1 sequence (P21397 whole entry): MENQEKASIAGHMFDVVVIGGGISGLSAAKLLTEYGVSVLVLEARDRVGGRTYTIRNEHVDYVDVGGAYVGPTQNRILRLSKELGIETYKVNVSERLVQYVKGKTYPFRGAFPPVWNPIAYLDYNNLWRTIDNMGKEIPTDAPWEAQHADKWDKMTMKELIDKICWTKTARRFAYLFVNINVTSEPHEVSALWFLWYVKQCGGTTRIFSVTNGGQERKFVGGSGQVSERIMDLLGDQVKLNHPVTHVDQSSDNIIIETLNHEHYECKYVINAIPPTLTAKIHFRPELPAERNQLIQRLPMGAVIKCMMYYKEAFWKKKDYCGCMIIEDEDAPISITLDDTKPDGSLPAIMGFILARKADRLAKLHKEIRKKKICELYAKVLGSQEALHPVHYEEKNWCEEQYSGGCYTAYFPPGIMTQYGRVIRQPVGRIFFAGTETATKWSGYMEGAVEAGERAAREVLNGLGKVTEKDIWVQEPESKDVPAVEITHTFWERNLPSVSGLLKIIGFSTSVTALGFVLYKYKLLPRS

[2] = molecular target: T2, Amine oxidase [flavin-containing] B (Homo sapiens, UniProt P27338)
T2 sequence (P27338 whole entry): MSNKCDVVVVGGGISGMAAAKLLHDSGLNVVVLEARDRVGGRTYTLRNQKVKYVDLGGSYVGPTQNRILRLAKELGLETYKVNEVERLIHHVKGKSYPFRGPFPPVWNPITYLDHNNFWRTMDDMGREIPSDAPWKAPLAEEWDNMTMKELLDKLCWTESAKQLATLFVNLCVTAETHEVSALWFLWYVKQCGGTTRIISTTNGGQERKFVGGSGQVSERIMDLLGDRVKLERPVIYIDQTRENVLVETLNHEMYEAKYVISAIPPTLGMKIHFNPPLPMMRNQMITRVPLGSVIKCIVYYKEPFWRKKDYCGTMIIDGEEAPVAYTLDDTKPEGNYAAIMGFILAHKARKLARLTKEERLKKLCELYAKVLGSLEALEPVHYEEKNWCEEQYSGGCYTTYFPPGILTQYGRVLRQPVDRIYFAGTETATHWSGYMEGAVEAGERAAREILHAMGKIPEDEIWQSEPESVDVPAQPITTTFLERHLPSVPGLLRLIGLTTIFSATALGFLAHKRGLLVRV
Description: Inhibition of human recombinant MAOB using kynuramine as substrate preincubated for 10 mins followed by substrate addition at 10 secs intervals measured after 20 mins by fluorescence assay

Homo sapiens = organism: Homo sapiens; assay: Selectivity index, ratio of IC50 for human recombinant MAOA to IC50 for human recombinant MAOB
Acetylcholinesterase = Acetylcholinesterase (Electrophorus electricus, UniProt O42275); assay: Inhibition of electric eel AChE using acetylthiocholine iodide as substrate preincubated for 10 mins followed by substrate addition and measured after 10 mins by Ellman's method
Acetylcholinesterase, sequence (O42275 whole entry): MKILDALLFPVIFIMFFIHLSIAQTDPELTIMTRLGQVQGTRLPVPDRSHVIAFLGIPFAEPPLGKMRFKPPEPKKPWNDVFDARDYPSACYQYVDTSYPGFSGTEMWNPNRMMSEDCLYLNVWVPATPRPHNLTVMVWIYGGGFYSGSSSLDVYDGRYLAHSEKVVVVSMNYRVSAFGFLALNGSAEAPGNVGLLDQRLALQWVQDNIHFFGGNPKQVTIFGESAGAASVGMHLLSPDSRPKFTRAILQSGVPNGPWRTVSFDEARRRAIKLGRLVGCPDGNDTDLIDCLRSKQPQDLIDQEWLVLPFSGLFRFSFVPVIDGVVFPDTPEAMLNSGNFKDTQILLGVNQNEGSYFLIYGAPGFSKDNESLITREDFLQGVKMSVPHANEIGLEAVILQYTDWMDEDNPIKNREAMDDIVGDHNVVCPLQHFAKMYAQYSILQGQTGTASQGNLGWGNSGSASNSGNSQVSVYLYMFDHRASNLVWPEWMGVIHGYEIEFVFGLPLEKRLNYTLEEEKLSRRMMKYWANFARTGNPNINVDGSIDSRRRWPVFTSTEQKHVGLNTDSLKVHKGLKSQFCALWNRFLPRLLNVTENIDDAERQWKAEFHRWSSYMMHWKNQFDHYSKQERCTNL

Cholinesterase = Cholinesterase (Equus caballus, UniProt P81908); assay: Inhibition of equine serum BuChE using S-butyrylthiocholine iodide as substrate pretreated for 10 mins followed by substrate addition and measured after 10 mins by Ellman's method
Cholinesterase, sequence (P81908 whole entry): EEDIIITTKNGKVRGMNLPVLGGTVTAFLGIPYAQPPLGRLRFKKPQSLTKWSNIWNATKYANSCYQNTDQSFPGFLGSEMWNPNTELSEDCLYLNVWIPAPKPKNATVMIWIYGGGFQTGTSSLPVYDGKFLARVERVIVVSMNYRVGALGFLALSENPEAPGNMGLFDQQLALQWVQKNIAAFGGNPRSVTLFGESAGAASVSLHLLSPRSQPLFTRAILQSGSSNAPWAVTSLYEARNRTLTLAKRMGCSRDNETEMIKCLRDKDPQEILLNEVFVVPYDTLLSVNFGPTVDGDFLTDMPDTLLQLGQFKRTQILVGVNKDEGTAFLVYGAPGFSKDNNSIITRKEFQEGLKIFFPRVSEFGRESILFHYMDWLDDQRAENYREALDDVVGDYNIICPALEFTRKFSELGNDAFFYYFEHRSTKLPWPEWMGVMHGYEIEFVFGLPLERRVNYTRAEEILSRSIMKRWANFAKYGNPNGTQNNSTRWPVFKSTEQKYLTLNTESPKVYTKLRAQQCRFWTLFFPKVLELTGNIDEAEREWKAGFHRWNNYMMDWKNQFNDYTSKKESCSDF

[3] = Stability in 0.1 M HCl assessed as compound degradation at 1 mg/ml up to 7 days by UV/vis absorbance assay; format: physicochemical; details: buffer, 168 h
[4] = Stability in 0.1 M NaOH assessed as compound degradation at 1 mg/ml up to 7 days by UV/vis absorbance assay; format: physicochemical; details: 168 h
[5] = molecular target: T1, Amine oxidase [flavin-containing] A; assay: Irreversible time dependent inhibition of human recombinant MAOA at 2 times IC50 using kynuramine as substrate preincubated up to 60 mins followed by 45 uM substrate addition by fluorescence assay; details: TDE = time-dependent effect
[6] = (§1) Cytotoxicity against human SH-SY5Y cells assessed as reduction in cell viability after 48 hrs by MTT assay; format: cell-based; details: SH-SY5Y cells
SH-SY5Y [7] = assay: as §1; format: cell-based; details: sh-sy5y, 48 h
SH-SY5Y [8] = assay: Cytoprotection against MPP+ induced cell death in human SH-SY5Y cells assessed as cell survival at 1 uM preincubated for 2 hrs followed by MPP+ addition and measured after 48 hrs by MTT assay (reference value: 52.78 +/- 7.35%); format: functional; details: read-out: Activity
SH-SY5Y [9] = assay: Cytoprotection against MPP+ induced cell death in human SH-SY5Y cells assessed as cell survival at 5 to 10 uM preincubated for 2 hrs followed by MPP+ addition and measured after 48 hrs by MTT assay (reference value: 52.78 +/- 7.35%); format: functional, cell-based

SMILES: CCN(CC)C(=O)Oc1ccc2cc[nH]c2c1
- IC50 [1]: 88.1 µM
- IC50 [2]: > 100 µM
- Ratio IC50 (Homo sapiens): < 0.88
- IC50 (Acetylcholinesterase): 3.72 µM
- IC50 (Cholinesterase): 3.18 µM

SMILES: C#CCn1ccc2cc(NC(=O)N(CC)CC)ccc21
- IC50 [1]: 33.4 µM
- IC50 [2]: 28.8 µM
- Ratio IC50 (Homo sapiens): 1.16
- IC50 (Acetylcholinesterase): 2.77 µM
- IC50 (Cholinesterase): 3.96 µM

SMILES: C#CCn1ccc2ccc(OC(=O)N(CC)CC)cc21
- IC50 [1]: 51.6 µM
- IC50 [2]: 1.84 µM
- Ratio IC50 (Homo sapiens): 28.1
- IC50 (Acetylcholinesterase): 2.41 µM
- IC50 (Cholinesterase): 5.01 µM
- Stability [3]: Unstable
- Stability [4]: Unstable

- inhibition (INH) [5]: Tde
SMILES: C#CCN(C)CCCOc1ccc(Cl)cc1Cl [CLORGILINE]

SMILES: C#CCn1ccc2cc(OC(=O)N(CC)CC)ccc21
- IC50 [1]: 99.1 µM
- IC50 [2]: 16.5 µM
- Ratio IC50 (Homo sapiens): 6
- IC50 (Acetylcholinesterase): 2.57 µM
- IC50 (Cholinesterase): 3.01 µM

SMILES: C#CCn1ccc2ccc(NC(=O)N(CC)CC)cc21
- IC50 [1]: 4.31 µM
- IC50 [2]: 2.62 µM
- Ratio IC50 (Homo sapiens): 1.65
- IC50 (Acetylcholinesterase): 3.7 µM
- IC50 (Cholinesterase): 2.82 µM
- inhibition (INH) [5]: Tde
- Stability [3]: Stable
- Stability [4]: Stable
- CC50 at 48 h [6]: > 100 µM
- Activity (SH-SY5Y [7]): Dose-dependent effect
- viability at 1 µM (SH-SY5Y [8]): 107%
- Activity (SH-SY5Y [9]): Active

SMILES: CCN(CC)C(=O)Nc1ccc2[nH]ccc2c1
- IC50 [1]: > 100 µM
- IC50 [2]: > 100 µM
- IC50 (Acetylcholinesterase): 1.97 µM
- IC50 (Cholinesterase): 3.48 µM

SMILES: C#CCN[C@@H]1CCc2ccc(OC(=O)N(C)CC)cc21 [LADOSTIGIL]
- IC50 [1]: > 100 µM
- Ratio IC50 (Homo sapiens): > 2.69
- IC50 (Acetylcholinesterase): 31.8 µM
- IC50 (Cholinesterase): 1.98 µM

SMILES: CCN(CC)C(=O)Nc1ccc2cc[nH]c2c1
- IC50 [1]: 20.4 µM
- IC50 [2]: > 100 µM
- Ratio IC50 (Homo sapiens): < 0.2
- IC50 (Acetylcholinesterase): 2.28 µM
- IC50 (Cholinesterase): 4.55 µM
- CC50 at 48 h [6]: > 100 µM
- Activity (SH-SY5Y [7]): Dose-dependent effect
- viability at 1 µM (SH-SY5Y [8]): 84.3%
- Activity (SH-SY5Y [9]): Active

SMILES: CCN(CC)C(=O)Oc1ccc2[nH]ccc2c1
- IC50 [1]: 13.2 µM
- IC50 [2]: > 100 µM
- Ratio IC50 (Homo sapiens): < 0.13
- IC50 (Acetylcholinesterase): 2.78 µM
- IC50 (Cholinesterase): 2.29 µM

Reference: ChEMBL document CHEMBL4257479, “Design, synthesis and evaluation of indole derivatives as multifunctional agents against Alzheimer's disease” (Medchemcomm, 2018)
